Results on 1 compound are retold here after patent publication US9023817B2, “Use of albiflorin for anti-depression” (priority 2009, dated 2015).

For test [1], the system named is ICR mice. As to the kind of experiment: Tail suspension test in mice, administration by gavage. The format is in vivo. Conditions: 3.5 mg/kg/d by gavage for two days; 1 h after administration; over 4 min. The protocol: In the second day, 1 h after the administration, the tail of mouse (2 cm away from the tip of the tail) was fixed to the connection line of 100 g tension transducer by adhesive plaster, and the mouse was hung upside down, with the head about 15 cm away from the experimental bench, two animals isolated from each other by a cardboard were simultaneously tested for each time. The transducer was connected to the Medlab bio-signals acquisition and processing system, after 2 min of adaption, the result over 4 min was recorded, and the immobility situation was converted into the time(s). The experimental data were expressed as X±SD, and the analysis of variance for the experimental results was carried out by SPSS 11.5 statistical software (purchased from SPSS Inc., USA).

Test [2] concerns ICR mice. Description: Forced swimming test in mice. Type of test: in vivo. As to conditions: 3.5 mg/kg/d by gavage for two days; 1 h after administration; last 4 min. Here is the method:
Each group was administered by gavage at a dose of 0.2 ml/10 g weight, for two days, deionized water was administered to vehicle group.
In the second day, 1 h after the administration, the mice were placed separately into a water cylinder with 20 cm of height, 18 cm of diameter, 10 cm of depth, 23±2° C. of water temperature; observing each for 6 min, after 2 min of adaption, the immobility time over the last 4 min was recorded.
The data was expressed as x±s, analyzed by SPSS 13.0 statistical software by means of One-Way ANOVA test, the homogeneity of variance was tested by LSD and SNK test.

Test [3] relates to ICR mice. Description: Tail suspension test in mice, intraperitoneal injection. Type of test: in vivo. As to conditions: 7 mg/kg intraperitoneal injection, 1 day; 30 min after administration. The protocol: Normal mice were randomly divided into three groups (n=20 for each group) according to their weights, i.e. model group, high-dose group (14 mg/kg) and medium-dose group (7 mg/kg) of Albiflorin. Intraperitoneal injection group was subjected to the administration for 1 day. Each group was administered at a dose of 0.2 ml/10 g weight.
The test of intraperitoneal injection group was performed at 30 min after the administration. The tail of mouse 2 cm away from the tip of the tail) was fixed to the connection line of 100 g tension transducer with adhesive plaster, and the mouse was hung upside down, with the head about 15 cm away from the experimental bench, two animals isolated from each other by a cardboard were simultaneously tested for each time. The transducer was connected into the Medlab bio-signals acquisition and processing system, after 2 mins of adaption, the result over 4 mins was recorded, and the immobility situation was converted into the time(s).
The experimental data was expressed as X±SD, and the analysis of variance for the experimental results was carried out by SPSS 11.5 statistical software (purchased from SPSS Inc., USA).

In test [4] the test system is rats with chronic stress induced depression model. Description: Consumption of 1% aqueous sucrose, chronic stress induced depression. Conditions: 1% aqueous sucrose for 1 hour. The format is in vivo, SD rats. The protocol:
The gavage was carried out along with the model establishment, once a day, for 21 days. […] Referring to the methods in the literature (Xu Jing, Li Xiaoqiu, Establishment and evaluation of the model of chronic stress induced depression, Chinese Journal of Behavioral Medical Science, 2003, 12(1): 14 16), the model was established (i.e., establishing animal model of anti-depression by means of CUMS): the foot electric shock (voltage: […] (5 minutes), drying at 45° C. […] All parameters to be tested were expressed as Mean±SD (X±s), and tested by means of analysis of variance (ANOVA) in SPSS 12.0 software (purchased from SPSS Inc., USA), p<0.05 means that there was a significant difference.

Test [5] concerns noradrenalin in the brain of rat. As to the kind of experiment: Noradrenalin in the brain of rat with chronic stress (HPLC-ECD, prefrontal cortex). The format is in vivo, SD rats. Conditions: 3.5 mg/kg/d gavage for 21 days. Here is the method:
After being fed without water for 24 hours, SD rats were administered with 1% aqueous sucrose, the consumption of aqueous sucrose was measured for 1 hour. The rats were randomly divided into six groups (n=12 for each group) according to the consumptions of aqueous sucrose, i.e. vehicle group, model group, positive control group of Fluoroxetine Hydrochloride (2.5 mg/kg/d), high-dose group (14 mg/kg/day), medium-dose group (7 mg/kg/day), and low-dose group (3.5 mg/kg/day) of Albiflorin. The gavage was carried out along with the model establishment, once a day, for 21 days. Each group was administered at a dose of 1.0 ml/100 g weight, and weighed once a week.
The rats were fed at 6/cage as vehicle group, with normal diets and drinking water, and without any stimulation.
The rats were fed at 1/cage as the other five groups, and subjected to unpredicted stress stimulations for 21 days, including: swimming in ice water, drying, tail nipping, wet feeding, reversed day and night, fasting, water deprivation and the like. One kind of stimulations was randomly given for each day.
The animal was executed by decapitation, the brain of it was quickly stripped on the ice, the prefrontal cortex was taken out, then placed into frozen tissue tube after weighting, rapidly frozen with liquid nitrogen, and placed into the refrigerator at −70° C. until test.

For the compound `C[C@]12C[C@@H](O)[C@@H]3C[C@@]1(O[C@@H]1O[C@H](CO)[C@@H](O)[C@H](O)[C@H]1O)[C@@]3(COC(=O)c1ccccc1)C(=O)O2` [Albiflorin], the entries for the “Immobility Time” value in test [1], in test [2] and in test [3] were 83.82 ± 35.099 s, 44.85 ± 29.695 s and 82.350 ± 52.5132 s, respectively. Besides, the “comsumption of aqeous sucrose” value turned out to be 12.75 ± 5.24 mL in test [4] (3.5 mg/kg/day gavage, Day 0); 12.67 ± 5.42 mL in test [4] (3.5 mg/kg/day gavage, Day 7); 11.83 ± 5.15 mL in test [4] (3.5 mg/kg/day gavage, Day 14); 11.92 ± 3.96 mL in test [4] (3.5 mg/kg/day gavage, Day 21); 12.67 ± 5.37 mL in test [4] (7 mg/kg/day gavage, Day 0); 13.42 ± 5.37 mL in test [4] (7 mg/kg/day gavage, Day 7). Further, the “comsumption of aqeous sucrose” value in test [4] (14 mg/kg/day gavage, Day 0) is 12.50 ± 5.32 mL; in test [4] (14 mg/kg/day gavage, Day 7) it was 14.08 ± 3.65 mL; in test [4] (14 mg/kg/day gavage, Day 14) it was 13.00 ± 3.74 mL. Moreover, the NA in test [5] came out at 174.59 ± 60.35.
